Measurements: patent US11747352B2 (Concordia University, Inc., priority 2017, dated 2023)
Read-outs that look alike come from different tables or passages of the source. Marks after values point to notes of the source that are not given here.

How the values were obtained:
[1] = Eplerenone metabolism via pooled human liver microsomes (HLM150); format: in vitro ADME; settings: human, pooled human liver microsomes (HLM150, 150 donors), HLM 150, Corning/BD
[2] = tested on: human liver microsomes (HLM150); assay: as above; format: in vitro ADME; settings: for Vmax: HLM 150, Corning/BD
[3] = tested on: human liver microsomes (HLM, Xenotech); settings: cited from earlier work
[4] = cited from earlier work
CYP3A5 [5] = target: T1, CYP3A5 (Homo sapiens, UniProt P20815); assay: Tacrolimus metabolism by rhCYP3A5 (Kamdem et al. 2005); format: in vitro ADME; settings: rhCYP3A5 vs rhCYP3A4
[6] = cited from earlier work; for ORAL BIOAVAILABILITY: Table CYP3A4
CYP3A = settings: cited from earlier work
CYP3A5 [7] = target: T1, CYP3A5; settings: cited from earlier work
plasma protein = settings: Table of Tyrosine Kinase Inhibitor Substrates; cited from earlier work
[8] = Table of Tyrosine Kinase Inhibitor Substrates; cited from earlier work
[9] = substrate: COC(=O)[C@@H]1CC2=CC(=O)CC[C@]2(C)[C@@]23O[C@@H]2C[C@@]2(C)[C@@H](CC[C@@]24CCC(=O)O4)[C@H]13; assay: cells, lysate or membranes named; format: in vitro ADME, human

COC(=O)[C@@H]1CC2=CC(=O)CC[C@]2(C)[C@@]23O[C@@H]2C[C@@]2(C)[C@@H](CC[C@@]24CCC(=O)O4)[C@H]13 [Eplerenone]
Km at 10 min ([1]; 6β-OH metabolite formation): 473 µM | Km at 10 min ([1]; 21-OH metabolite formation): 197 µM | Vmax ([2]; 6β-OH metabolite formation): 1493 pmol/min/mg | Vmax ([2]; 21-OH metabolite formation): 216 pmol/min/mg | ISEF for recombinant CYP3A4/5 ([2]; HLM 150 vs rhCYP3A4 and rhCYP3A5 clearances, Eq. 1): 1.0 | Km ([3]; 6β-OH metabolite formation): 217 µM | Vmax ([3]; 6β-OH metabolite formation): 973 pmol/min/mg | Km ([3]; 21-OH metabolite formation): 211 µM | Vmax ([3]; 21-OH metabolite formation): 143 pmol/min/mg | Permeability model Caco-2 ([4]; Caco-2): Caco-2 (24* 10^−6 cm/s) | Compound Type ([4]; SimCYP model parameter): Neutral | ka ([4]; SimCYP model parameter): 1.647 h⁻¹

C=CC[C@@H]1/C=C(\C)C[C@H](C)C[C@H](OC)[C@H]2O[C@@](O)(C(=O)C(=O)N3CCCC[C@H]3C(=O)O[C@H](/C(C)=C/[C@@H]3CC[C@@H](O)[C@H](OC)C3)[C@H](C)[C@@H](O)CC1=O)[C@H](C)C[C@@H]2OC [Tacrolimus]
higher catalytic efficiency via CYP3A5 (CYP3A5 [5]): 60% | ORAL BIOAVAILABILITY [6]: 17-31% ^

Cc1nnc2n1-c1ccc(Cl)cc1C(c1ccccc1)=NC2 [Alprazolam]
All CYP3A (% Metabolism) (CYP3A): 62% | CYP3A5 (% Metabolism) (CYP3A5 [7]): <10%

COC(=O)[C@@H]1CC2=CC(=O)CC[C@]2(C)[C@@]23O[C@@H]2C[C@@]2(C)[C@@H](CC[C@@]24CC(O)C(=O)O4)[C@H]13 (some centres unmarked) [21OH-EP, 21-hydroxyeplerenone]
Compound Type ([4]; SimCYP model parameter): Neutral | Blood/plasma ratio [4]: 1

Cc1ncc2n1-c1ccc(Cl)cc1C(c1ccccc1F)=NC2 [Midazolam]
AUC fold higher than average (CYP3A4/5): 2.3 fold | AUC fold lower than the mean (CYP3A4/5): 4.1 fold | All CYP3A (% Metabolism) (CYP3A): 92% | CYP3A5 (% Metabolism) (CYP3A5 [7]): 43%

C=C[C@H]1C[N@@]2CC[C@H]1C[C@@H]2[C@@H](O)c1ccnc2ccc(OC)cc12 [Quinidine]
ORAL BIOAVAILABILITY [6]: 70-80% ^ | All CYP3A (% Metabolism) (CYP3A): 93%

CCN(CC)CCNC(=O)c1c(C)[nH]c(/C=C2\C(=O)Nc3ccc(F)cc32)c1C [Sunitinib]
F % ([6]; Table of Tyrosine Kinase Inhibitor Substrates, CYP3A4): 50% | Protein binding % (plasma protein): 95% | T½ [8]: 40 to 60 h

COC(=O)[C@H]1[C@H]2[C@@H]3CC[C@@]4(CCC(=O)O4)[C@@]3(C)C[C@H]3O[C@@]23[C@@]2(C)CCC(=O)C=C2[C@@H]1O [6OH-EP, 6β-hydroxyeplerenone]
Compound Type ([4]; SimCYP model parameter): Neutral | Blood/plasma ratio [4]: 1

Cc1nnc2n1-c1ccc(Cl)cc1C(c1ccccc1Cl)=NC2 [Triazolam]
All CYP3A (% Metabolism) (CYP3A): 92% | CYP3A5 (% Metabolism) (CYP3A5 [7]): 25%

CC(C)(C)NC(=O)[C@@H]1C[C@@H]2CCCC[C@@H]2CN1C[C@@H](O)[C@H](Cc1ccccc1)NC(=O)[C@H](CC(N)=O)NC(=O)c1ccc2ccccc2n1 [Saquinavir]
All CYP3A (% Metabolism) (CYP3A): 99% | CYP3A5 (% Metabolism) (CYP3A5 [7]): 11%

B1: rhCYP3A5 (Homo sapiens) (protein)
chain: MDLIPNLAVETWLLLAVSLVLLYLYGTRTHGLFKRLGIPGPTPLPLLGNVLSYRQGLWKFDTECYKKYGKMWGTYEGQLPVLAITDPDVIRTVLVKECYSVFTNRRSLGPVGFMKSAISLAEDEEWKRIRSLLSPTFTSGKLKEMFPIIAQYGDVLVRNLRREAEKGKPVTLKDIFGAYSMDVITGTSFGVNIDSLNNPQDPFVESTKKFLKFGFLDPLFLSIILFPFLTPVFEALNVSLFPKDTINFLSKSVNRMKKSRLNDKQKHRLDFLQLMIDSQNSKETESHKALSDLELAAQSIIFIFAGYETTSSVLSFTLYELATHPDVQQKLQKEIDAVLPNKAPPTYDAVVQMEYLDMVVNETLRLFPVAIRLERTCKKDVEINGVFIPKGSMVVIPTYALHHDPKYWTEPEEFRPERFSKKKDSIDPYIYTPFGTGPRNCIGMRFALMNMKLALIRVLQNFSFKPCKETQIPLKLDTQGLLQPEKPIVLKVDSRDGTLSGE
notes: purchased BD Biosciences/Corning
Km ([9]; other: 6β-OH metabolite formation, rhCYP3A5 (printed rhCYPA5)): 142 mcM | Km ([9]; other: 21-OH metabolite formation, rhCYP3A5): 72 mcM
